Earlier results on four compounds are cited in PubChem BioAssay AID1259409 (Chemical Carcinogenesis Research Information System (CCRIS), 2018).

The subject of the data set is rodent chemically induced tumor inhibition, incidence and multiplicity. In words: CCRIS tumor inhibitor studies.

Several values for one entry are separate records, joined by “and”; a condition that tells them apart may be missing. Identical values can stand only once.

Turning to `CCCCCCCCCc1ccc(O)cc1`, the “tumour outcome (control, treated, inhibition, significance)” value was 7/20 (35%), 1/20 (5%), 86%, p=0.02 (Carcinogen: 7,12-DIMETHYLBENZ[A]ANTHRACENE, 57-97-6, Dose [Inhibitor]: 0, 25 PPM IN DIET FOR 50 WK BEGINNING 1 WK POST-CARCINOGEN DOSE (STUDY DURATION: 51 WK), Route [Inhibitor]: ORAL, Species: RAT, Strain/Sex: SPRAGUE-DAWLEY/FEMALE, Target Tissue: Type of Lesion: OVARY: ADENOCARCINOMA, Dose [Carcinogen]: 0.01 ML OF 0.5% DMBA IN OLIVE OIL INTO THE LEFT OVARY, ONCE, UNDER PENTOBARBITAL ANESTHESIA, Promoter: NONE USED) and 7/20 (35%), 1/20 (5%), 86%, p=0.02 (Carcinogen: 7,12-DIMETHYLBENZ[A]ANTHRACENE, 57-97-6, Dose [Inhibitor]: 0, 250 PPM IN DIET FOR 50 WK BEGINNING 1 WK POST-CARCINOGEN DOSE (STUDY DURATION: 51 WK), Route [Inhibitor]: ORAL, Species: RAT, Strain/Sex: SPRAGUE-DAWLEY/FEMALE, Target Tissue: Type of Lesion: OVARY: ADENOCARCINOMA, Dose [Carcinogen]: 0.01 ML OF 0.5% DMBA IN OLIVE OIL INTO THE LEFT OVARY, ONCE, UNDER PENTOBARBITAL ANESTHESIA, Promoter: NONE USED).

On to `c1ccc2c(c1)Nc1ccccc1[Se]2`, for which the “tumour outcome (control, treated, inhibition, significance)” value (Carcinogen: BENZO[A]PYRENE, 50-32-8, Dose [Inhibitor]: 0, 3.8 UMOL/G DIET BEGINNING 1 WK PRIOR TO CARCINOGEN TREATMENT AND CONTINUING FOR 1 WK POST CARCINOGEN TREATMENT FOLLOW, Route [Inhibitor]: ORAL, Species: MOUSE, Strain/Sex: CD-1/FEMALE, Target Tissue: Type of Lesion: FORESTOMACH: PAPILLOMA, Dose [Carcinogen]: 1 MG IN 0.2 ML CORN OIL 2/WK FOR 4 WK, Promoter: NONE USED) was 85%, 95%, -12%, not significant.

In the case of `O=c1c(-c2ccc(O)cc2)coc2cc(O)ccc12`, the “tumour outcome (control, treated, inhibition, significance)” value was 95%, 85%, 11%, p=0.366 (Carcinogen: 7,12-DIMETHYLBENZ[A]ANTHRACENE (57-97-6), Dose [Inhibitor]: 105 MG/KG DIET FOR 17 WKS (STUDY DURATION: 17 WKS), Route [Inhibitor]: DIET, Species: RAT, Strain/Sex: SPRAGUE-DAWLEY/FEMALE (20,18)/(20,19), Target Tissue: Type of Lesion: MAMMARY, Dose [Carcinogen]: 12.5 MG ONCE 1 WK AFTER START OF DIET (STUDY DURATION: 17 WKS)); 3/26 (11%), 0/14 (0%), 100%, not significant (Carcinogen: N-METHYL-N-NITROSOUREA, 684-93-5, Dose [Inhibitor]: 0, 1 MG/30 G BW 1/4 WK FOR 25 WK BEGINNING 5 WK POST CARCINOGEN TREATMENT (STUDY DURATION: 30 WK), Route [Inhibitor]: SUBCUTANEOUS, Species: MOUSE, Strain/Sex: ICR/FEMALE, Target Tissue: Type of Lesion: UTERUS (LEFT): ADENOCARCINOMA, Dose [Carcinogen]: 0.1 MG/KG BW INJECTED INTO LEFT UTERINE TUBE ONCE); 8/24 (33%), 1/23 (4%), 87%, p<0.05 (Carcinogen: N-METHYL-N-NITROSOUREA, 684-93-5, Dose [Inhibitor]: 0, 1 MG/30 G BW 1/4 WK FOR 25 WK BEGINNING 5 WK POST CARCINOGEN TREATMENT (STUDY DURATION: 30 WK), Route [Inhibitor]: SUBCUTANEOUS, Species: MOUSE, Strain/Sex: ICR/FEMALE, Target Tissue: Type of Lesion: UTERUS (LEFT): ADENOCARCINOMA, Dose [Carcinogen]: 0.1 MG/KG BW INJECTED INTO LEFT UTERINE TUBE ONCE, Promoter: 17-BETA-ESTRADIOL, 50-28-2).

As for `CC1=CCC(=O)O1`, the “tumour outcome (control, treated, inhibition, significance)” value (Carcinogen: BENZO[A]PYRENE, 50-32-8, Dose [Inhibitor]: 0.034 MMOL/G IN DIET FOR 5 WK (STUDY DURATION: 21 WK), Route [Inhibitor]: ORAL, Species: MOUSE, Strain/Sex: ICR/HA/FEMALE, Target Tissue: Type of Lesion: FORESTOMACH: TUMOR, Dose [Carcinogen]: 1 MG IN 0.2 ML CORN OIL, 2/WK FOR 4 WK STARTING ON D 8 OF EXPERIMENT, Promoter: NONE USED) is 95%, 42%, 56%, p<0.01 and 95%, 53%, 44%, p<0.01.
